Values joined by “and” are separate entries in the source; they are usually repeats but may differ in a detail not shown here. Equal values may be shown once.

In one experiment the test system is PSMA+HEK cells. Nature of the experiment: CD16α activation assay with pan human IgG as source of sAb. Format: cell-based. As to conditions: pan IgG 230 μM, ~10 nM anti-DNP IgG. On the procedure:
Preparation of antibody-CIR/ARM stocks were mixed overnight prior to addition to the ADCC plate. In the case of mmAb and mAb, incubation was carried out at 600 nM antibody and 1.2 μM CIR or ARM. In the case of IgG from serum, incubation was completed at 230 μM antibody and 8.7 μM CIR or ARM. In all cases, DMSO was kept close to 1%. After the overnight incubation, a dilution series was completed on the antibody-CIR/ARM stocks in RPMI (1% DMSO). Target cells were seeded at a density of 2.5×10^4 cells per well in opaque 96 well flat-bottom plates (Corning Costar, 3917) in complete media. Sixteen hours after seeding, cells were washed gently with 100 μL of neat RPMI. To the cells, 25 μL of RPMI supplemented with 4% ultra-low IgG FBS was added followed by 25 μL of antibody+/−CIR/ARM conditions described above. After a 30-minute incubation, 25 μL of supplemented RPMI containing 7.5×10^4 Jurkat effector cells expressing human FcgRIlla (CD16) were added to each well. The plates were then incubated for 6 additional hours. 75 μL of Bio-Glo Luciferase Assay Reagent was added to each well, and luminescence was quantified using the SpectraMax i3 plate reader.
Depleted serum IgG is derived from pan serum human IgG passed through DNP coated beads to remove endogenous anti-DNP IgG. […]

In experiment [1] the test system is humanized anti-DNP SPE7 (mmAb). Nature of the experiment: BLI covalent labeling kinetics assay on IgG Fc capture probes, mmAb. Type of experiment: binding. On the procedure: Kinetic assays to characterize the second order rate constant (kinact/KI) describing the CIR+Ab labeling reaction involved incubating increasing concentrations of CIR 3 or CIR 5 with a fixed concentration (75 nM) of anti-DNP mmAb in solution, for different periods of time. PSMA binding to CIR-Ab complexes increases the total mass associated with the probe surface leading to signal increases (nm shift). CIR 3 (500 nM) and 75 nM of either mmAb or mAb (AcroBiosystems Catalog #DNP-M2) was reacted in 1× Kinetics Buffer (ForteBio) for four hours prior to the experiment. IgG Fc capture (ProG) probes from ForteBio were placed in 1× Kinetics Buffer for 20 minutes prior to the experiment for wetting. The experiment was conducted using an Octet Red96 (ForteBio), where the acquisition rate was set to 5 Hz and the temperature was held at 25° C. The plate shaker setting was 1000 RPM. A volume of 250 μL of each solution was loaded onto a black flat-bottom 96-well plate (Grenier). The experiment began by placing the ProG probes in 1×Kinetics Buffer for four minutes to establish a baseline. Next, the probes were placed into the CIR 3 and anti-DNP antibody reaction mixture to load the covalent complex (CIR-Ab) onto the probe. Next, the probes were placed in a solution of 5 mM DNP-glycine competitor in 1×Kinetics Buffer in order to disrupt any non-covalent or non-specific binding. The baseline was re-established by then placing the probes in 1× Kinetics Buffer for 0.5 minutes. To measure PSMA association, the probes were placed in a solution of 500 nM human PSMA protein in 1× Kinetics Buffer for 10 minutes. The probes were then placed in 1×Kinetics Buffer for 10 minutes to measure dissociation. The raw nm shift signal for the association and dissociation step obtained by the Octet Red96 was first baselined to the beginning of the association step (t=0 second) by subtracting the association signal at t=0 from the measured signal at each time point. The Kd was determined by fitting both the association and dissociation curves using the ‘association then dissociation’ binding model in GraphPad Prism 8. The experiment was repeated once for a total of two replicates.
The specific labelling of an antibody by a CIR occurs via a two-step mechanism. In the first step, the CIR binds to the antibody via its ABD and forms a reversible complex. […] This second order rate constant was determined by monitoring covalent product (CIR-Ab) formation as a function of time via BLI using IgG Fc capture probes (note: a non-specific labeling reaction occurs independent of binding to the DNP binding site with any biological nucleophile and follows second order kinetics without saturation). […]

For the compound `O=C(O)CC[C@H](NC(=O)N[C@@H](CCCCNC(=O)NCCOCCOCCOCCOCCOCCOCCOCCOC(=O)n1cnc(CCNC(=O)CNc2ccc([N+](=O)[O-])cc2[N+](=O)[O-])c1)C(=O)O)C(=O)O` [CIR 3], the CD16α activation entry with PSMA+HEK cells was “mediated efficient CD16α activation”. Also, the “covalent reaction selectivity at excess CIR” value in experiment [1] (20-fold excess (1.5 μM), mAb and mmAb) is “high covalent reaction selectivity for the DNP hapten binding site on both mAb and mmAb was observed”. The “Kinact/Kl ^c” value in experiment [1] (mmAb) was found to be 12000 ± 1000 M⁻¹ s⁻¹. Moreover, the “Kinact^c” value in experiment [1] (mmAb, 75 nM antibody) is listed as 4.0 × 10^−4 ± 0 s^−1. Besides, the Ki in experiment [1] (mmAb, read-out: Kl ^c) was ~30 nM and 30 nM.

(Values after patent publication US11827624B2, “Covalent immune recruiter compounds for immune cell recognition and associated uses” (McMaster University, priority 2020, dated 2023).)
